Reference: US9969699B2, “Cancer cell growth inhibitor, anticancer agent, and method for screening same, as well as novel compound” (Microbial Chemistry Research Foundation, priority 2014, dated 2018)

How the values were obtained:
KS-1 cells = test: 3D cell culture step, EGFR vIII gene non-expressing brain tumor cells KS-1; format: cell-based; details: Test Example 3, KS-1 cells
Method: (§1) The following 3 brain tumor cells were used as the EGFR vIII gene non-expressing cells. • U251 cells (available from ATCC) • U87MG cells (available from ATCC) • KS-1 cells (available from ATCC) <3D Cell Culture Step>
(§2) After the 3 days of culture, the number of viable cells was counted by […]-GLO (trademark) Luminescent Cell Viability Assay (available from Promega), which was a method for quantitating ATP in viable cells. A cell proliferation inhibition rate in the 3D cell culture step was calculated according to (Expression 3) below. Cell proliferation inhibition rate(%)=(1−X/Y)×100 (Expression 3)
(§3) In the (Expression 3), X denotes the number of viable cells when the test substance was added, and Y denotes the number of viable cells when the test substance was not added.

NIH3T3 cells = test: 2D cell culture step (environment with adhesion scaffold), proliferation of NIH3T3 cells; format: cell-based; details: Mus musculus, 72 h; NIH3T3 cells, TC-treated plate, 3 days, […]-GLO; read-out: IC50 2D cell culture step
Method: Note that, as a negative control, the NIH3T3 cells at 2×10^3 cells/100 were seeded to the same plate in a volume of 100 μL per well and cultured at 37° C. in the presence of 5% CO2 for 3 days without the addition of the test substance.
Note that, Dulbecco's Modified Eagle Medium supplemented with 5% FBS was used for the culture.
A cell proliferation inhibition rate in the 2D cell culture step was calculated according to (Expression 2) below. Cell proliferation inhibition rate(%)=(1−D/E)×100 (Expression 2)
In the (Expression 2), D denotes the number of viable NIH3T3 cells when the test substance was added, and E denotes the number of viable NIH3T3 cells when the test substance was not added.

NIH3T3/EGFR vIII cells = test: 3D cell culture step (environment without adhesion scaffold), proliferation of NIH3T3/EGFR vIII cells; format: cell-based, mouse
NIH3T3/EGFRWT cells = test: 3D cell culture step, NIH3T3/EGFRWT cells in EGF-including medium; format: cell-based, mouse
Method: as §2, §3

[1] = Acute toxicity test, tail vein administration; format: in vivo, ICR mice; details: tail vein once; for Organ weight Heart / Organ weight Kidney (Right) / Organ weight Liver / Organ weight Lung / Organ weight Spleen / Organ weight Thymus / Organ weight Kidney (Left): two weeks after
Method: Two-weeks after the compounds represented by the Structural Formula (1) at the above concentrations were administered to the tail veins, the mice were dissected and organs thereof were weighed.

U87MG cells = test: 3D cell culture step, EGFR vIII gene non-expressing brain tumor cells U87MG; format: cell-based; details: Test Example 3, U87MG cells
Method: as §1, §2, §3

[2] = Acute toxicity test, intraperitoneal administration; format: in vivo, ICR mice; details: intraperitoneally once; for Organ weight Heart / Organ weight Kidney (Left) / Organ weight Kidney (Right) / Organ weight Liver / Organ weight Lung / Organ weight Spleen / Organ weight Thymus: two weeks after
Source text: Two-weeks after the compounds represented by the Structural Formula (1) at the above concentrations were intraperitoneally administered, the mice were dissected and organs thereof were weighed.
Two-weeks after the compounds represented by the Structural Formula (8) at the above concentrations were intraperitoneally administered, the mice were dissected and organs thereof were weighed.

U251 cells = test: 3D cell culture step, EGFR vIII gene non-expressing brain tumor cells U251; format: cell-based; details: Test Example 3, U251 cells
Method: as §1, §2, §3

SMILES: Nc1ccc(Br)cc1-c1nc2ccccc2[nH]c1=O [Structural Formula (1), 3-(2-amino-5-bromophenyl)-2(1H)-quinoxalinone]
- inhibiting activity against scaffold-independent proliferation capacity (KS-1 cells): did not exhibit an inhibiting activity
- IC50 (NIH3T3 cells): > 10000 nM
- cell proliferation inhibiting activity compared with AG1478, Gefitinib and Erlotinib (NIH3T3/EGFR vIII cells; 3D cell culture step): more significant cell proliferation inhibiting activity
- IC50 (NIH3T3/EGFR vIII cells; Mus musculus, 72 h, NIH3T3/EGFR vIII cells, Ultra Low Attachment plate, 3 days, […]-GLO): 12 nM
- inhibiting activity against scaffold-independent proliferation capacity (NIH3T3/EGFR vIII cells; Test Example 3, NIH3T3/EGFR vIII cells): exhibited an inhibiting activity
- inhibition of proliferation of the NIH3T3/EGFRWT cells (NIH3T3/EGFRWT cells; 3D cell culture step, EGF 50 ng/mL in medium): inhibited proliferation
- inhibiting activity against scaffold-independent proliferation capacity (NIH3T3/EGFRWT cells; Test Example 3, NIH3T3/EGFRWT cells, EGF-including medium): exhibited an inhibiting activity
- Organ weight Heart ([1]; 0.39 mg/kg/0.2 mL): 121.0 mg
- Organ weight Kidney (Right) ([1]; 0.39 mg/kg/0.2 mL): 168.0 mg
- Organ weight Liver ([1]; 0.39 mg/kg/0.2 mL): 1325.0 mg
- Organ weight Lung ([1]; 0.39 mg/kg/0.2 mL): 173.0 mg
- Organ weight Spleen ([1]; 0.39 mg/kg/0.2 mL): 110.0 mg
- Organ weight Thymus ([1]; 0.39 mg/kg/0.2 mL): 83.0 mg
- Organ weight Heart ([1]; 0.78 mg/kg/0.2 mL): 116.0 mg
- Organ weight Kidney (Left) ([1]; 0.78 mg/kg/0.2 mL): 165.0 mg
- Organ weight Kidney (Right) ([1]; 0.78 mg/kg/0.2 mL): 174.0 mg
- Organ weight Liver ([1]; 0.78 mg/kg/0.2 mL): 1423.0 mg
- Organ weight Lung ([1]; 0.78 mg/kg/0.2 mL): 164.0 mg
- Organ weight Spleen ([1]; 0.78 mg/kg/0.2 mL): 115.0 mg
- Organ weight Thymus ([1]; 0.78 mg/kg/0.2 mL): 112.0 mg
- Organ weight Heart ([1]; 1.56 mg/kg/0.2 mL): 121.0 mg
- Organ weight Kidney (Left) ([1]; 1.56 mg/kg/0.2 mL): 170.0 mg
- Organ weight Kidney (Right) ([1]; 1.56 mg/kg/0.2 mL): 167.0 mg
- Organ weight Liver ([1]; 1.56 mg/kg/0.2 mL): 1471.0 mg
- Organ weight Lung ([1]; 1.56 mg/kg/0.2 mL): 170.0 mg
- Organ weight Spleen ([1]; 1.56 mg/kg/0.2 mL): 104.0 mg
- Organ weight Thymus ([1]; 1.56 mg/kg/0.2 mL): 56.0 mg
- toxicity ([1]; observed 2 weeks): no significant toxicity
- inhibiting activity against scaffold-independent proliferation capacity (U87MG cells): did not exhibit an inhibiting activity
- Organ weight Heart ([2]; 0.098 mg/kg/0.2 mL): 115.0 mg
- Organ weight Kidney (Left) ([2]; 0.098 mg/kg/0.2 mL): 139.0 mg
- Organ weight Kidney (Right) ([2]; 0.098 mg/kg/0.2 mL): 147.0 mg
- Organ weight Liver ([2]; 0.098 mg/kg/0.2 mL): 1047.0 mg
- Organ weight Lung ([2]; 0.098 mg/kg/0.2 mL): 160.0 mg
- Organ weight Spleen ([2]; 0.098 mg/kg/0.2 mL): 78.0 mg
- Organ weight Thymus ([2]; 0.098 mg/kg/0.2 mL): 67.0 mg
- Organ weight Heart ([2]; 0.195 mg/kg/0.2 mL): 125.0 mg
- Organ weight Kidney (Left) ([2]; 0.195 mg/kg/0.2 mL): 175.0 mg
- Organ weight Kidney (Right) ([2]; 0.195 mg/kg/0.2 mL): 184.0 mg
- Organ weight Liver ([2]; 0.195 mg/kg/0.2 mL): 1590.0 mg
- Organ weight Lung ([2]; 0.195 mg/kg/0.2 mL): 169.0 mg
- Organ weight Spleen ([2]; 0.195 mg/kg/0.2 mL): 121.0 mg
- Organ weight Thymus ([2]; 0.195 mg/kg/0.2 mL): 83.0 mg
- Organ weight Heart ([2]; 0.39 mg/kg/0.2 mL): 106.0 mg
- Organ weight Kidney (Left) ([2]; 0.39 mg/kg/0.2 mL): 157.0 mg
- Organ weight Kidney (Right) ([2]; 0.39 mg/kg/0.2 mL): 168.0 mg
- Organ weight Liver ([2]; 0.39 mg/kg/0.2 mL): 1350.0 mg
- Organ weight Lung ([2]; 0.39 mg/kg/0.2 mL): 160.0 mg
- Organ weight Spleen ([2]; 0.39 mg/kg/0.2 mL): 95.0 mg
- Organ weight Thymus ([2]; 0.39 mg/kg/0.2 mL): 74.0 mg
- Organ weight Heart ([2]; 0.78 mg/kg/0.2 mL): 115.0 mg
- Organ weight Kidney (Left) ([2]; 0.78 mg/kg/0.2 mL): 163.0 mg
- Organ weight Kidney (Right) ([2]; 0.78 mg/kg/0.2 mL): 159.0 mg
- Organ weight Liver ([2]; 0.78 mg/kg/0.2 mL): 1263.0 mg
- Organ weight Lung ([2]; 0.78 mg/kg/0.2 mL): 167.0 mg
- Organ weight Spleen ([2]; 0.78 mg/kg/0.2 mL): 116.0 mg
- Organ weight Thymus ([2]; 0.78 mg/kg/0.2 mL): 78.0 mg
- Organ weight Heart ([2]; 1.56 mg/kg/0.2 mL): 134.0 mg
- Organ weight Kidney (Left) ([2]; 1.56 mg/kg/0.2 mL): 162.0 mg
- Organ weight Kidney (Right) ([2]; 1.56 mg/kg/0.2 mL): 169.0 mg
- Organ weight Liver ([2]; 1.56 mg/kg/0.2 mL): 1472.0 mg
- Organ weight Lung ([2]; 1.56 mg/kg/0.2 mL): 178.0 mg
- Organ weight Spleen ([2]; 1.56 mg/kg/0.2 mL): 103.0 mg
- Organ weight Thymus ([2]; 1.56 mg/kg/0.2 mL): 85.0 mg
- Organ weight Heart ([2]; 3.125 mg/kg/0.2 mL): 135.0 mg
- Organ weight Kidney (Left) ([2]; 3.125 mg/kg/0.2 mL): 193.0 mg
- Organ weight Kidney (Right) ([2]; 3.125 mg/kg/0.2 mL): 191.0 mg
- Organ weight Liver ([2]; 3.125 mg/kg/0.2 mL): 1558.0 mg
- Organ weight Lung ([2]; 3.125 mg/kg/0.2 mL): 179.0 mg
- Organ weight Spleen ([2]; 3.125 mg/kg/0.2 mL): 150.0 mg
- Organ weight Thymus ([2]; 3.125 mg/kg/0.2 mL): 99.0 mg
- Organ weight Heart ([2]; 6.25 mg/kg/0.2 mL): 114.0 mg
- Organ weight Kidney (Left) ([2]; 6.25 mg/kg/0.2 mL): 167.0 mg
- Organ weight Kidney (Right) ([2]; 6.25 mg/kg/0.2 mL): 163.0 mg
- Organ weight Liver ([2]; 6.25 mg/kg/0.2 mL): 1412.0 mg
- Organ weight Lung ([2]; 6.25 mg/kg/0.2 mL): 178.0 mg
- Organ weight Spleen ([2]; 6.25 mg/kg/0.2 mL): 104.0 mg
- Organ weight Thymus ([2]; 6.25 mg/kg/0.2 mL): 68.0 mg
- Organ weight Heart ([2]; 12.5 mg/kg/0.2 mL): 107.0 mg
- Organ weight Kidney (Left) ([2]; 12.5 mg/kg/0.2 mL): 161.0 mg
- Organ weight Kidney (Right) ([2]; 12.5 mg/kg/0.2 mL): 163.0 mg
- Organ weight Liver ([2]; 12.5 mg/kg/0.2 mL): 1120.0 mg
- Organ weight Lung ([2]; 12.5 mg/kg/0.2 mL): 159.0 mg
- Organ weight Spleen ([2]; 12.5 mg/kg/0.2 mL): 98.0 mg
- Organ weight Thymus ([2]; 12.5 mg/kg/0.2 mL): 63.0 mg
- Organ weight Heart ([2]; 25 mg/kg/0.2 mL): 111.0 mg
- Organ weight Kidney (Left) ([2]; 25 mg/kg/0.2 mL): 157.0 mg
- Organ weight Kidney (Right) ([2]; 25 mg/kg/0.2 mL): 170.0 mg
- Organ weight Liver ([2]; 25 mg/kg/0.2 mL): 1316.0 mg
- Organ weight Lung ([2]; 25 mg/kg/0.2 mL): 147.0 mg
- Organ weight Spleen ([2]; 25 mg/kg/0.2 mL): 98.0 mg
- Organ weight Thymus ([2]; 25 mg/kg/0.2 mL): 92.0 mg
- Organ weight Heart ([2]; 50 mg/kg/0.4 mL): 120.0 mg
- Organ weight Kidney (Left) ([2]; 50 mg/kg/0.4 mL): 166.0 mg
- Organ weight Kidney (Right) ([2]; 50 mg/kg/0.4 mL): 173.0 mg
- Organ weight Liver ([2]; 50 mg/kg/0.4 mL): 1747.0 mg
- Organ weight Lung ([2]; 50 mg/kg/0.4 mL): 168.0 mg
- Organ weight Spleen ([2]; 50 mg/kg/0.4 mL): 132.0 mg
- Organ weight Thymus ([2]; 50 mg/kg/0.4 mL): 69.0 mg
- toxicity ([2]; 0.098 to 50 mg/kg, observed 2 weeks): no significant toxicity
- inhibiting activity against scaffold-independent proliferation capacity (U251 cells): did not exhibit an inhibiting activity
